Data reported in patent US10273239B2, “Spiro-lactam NMDA receptor modulators and uses thereof” (Aptinyx Inc., priority 2013, dated 2019).

Key:
[1] = Unified Activity Data: Porsolt; type: in vivo; conditions: 3 mg/kg, IV, 1 hour post dose
LTP = assay: Unified Activity Data: LTP; conditions: LTP Concentration 1 uM
[2] = target: T1, NMDA receptor (rat cortical membranes) (Rattus norvegicus, UniProt P35439); assay: [3H] MK-801 binding assay (potentiation of [3H]MK-801 binding)
T1 construct: well washed rat cortical membranes (200 μg); from tissue; host or cells: rat cerebral cortex membranes
Experimental: Assays were conducted as described in Moskal et al. (Moskal, J. R., Kuo, A. G., Weiss, C., Wood, P. L., O'Connor Hanson, A., Kelso, S., Harris, R. B., Disterhoft, J. F., 2005. GLYX-13: a monoclonal antibody-derived peptide that acts as an N-methyl-D-aspartate receptor modulator. Neuropharmacology. 49, 1077-87) The potentiation of [^3H]MK-801 binding (5 nM; 22.5 Ci/mmol) to well washed rat cortical membranes (200 μg) was measured under non-equilibrium conditions (15 min @ 25° C.) in the presence of increasing concentrations of test compounds and 50 μM glutamate. Zero levels were determined in the absence of any glycine ligand and in the presence of 30 μM 5,7 DCKA. Maximal stimulation was measured in the presence of 1 mM glycine, and 50 μM glutamate was present in all samples. The facilitation of [^3H]MK-801 binding by tests compounds was calculated by using a 3 parameter log agonist vs. response equation (Graph pad Prism, USA) and potency (EC50, expressed in pM) and maximal activity (% maximal stimulation) were calculated for the test compound.

EC50 [2]	SMILES	Unified Activity Data: Porsolt Floating Time Inhibition (Percent) [1]	Unified Activity Data: LTP Augmentation (Percent) (LTP)
	C[C@@H](O)[C@H](N)C(=O)N1CCCC12CNC2=O (stereo partly drawn) [Compound 4S-FNL-1, 5-((2S,3R)-2-amino-3-hydroxybutanoyl)-2,5-diazaspiro [3.4] octan-1-one]	70%	80%
0.0553 nM	C[C@@H](O)[C@H](NC(=O)OC(C)(C)C)C(=O)N1CCCC12CNC2=O (stereo in doubt) [Compound 4S-FNL-2, tert-butyl (3-hydroxy-1-oxo-1-(1-oxo-2,5-diazaspiro [3.4]octan-5-yl)butan-2-yl)carbamate]		
